According to PubChem BioAssay AID328 (DTP/NCI, 2004):
Where “and” joins values, the source holds several entries; their conditions need not be identical. Equal entries are not always repeated. Inconclusive results and toxic doses are left out. Rule for the calls: active = survival T/C of 150% or more; inactive = T/C below 125% in these data.

Tested on: BDF1 mice, P388 leukemia ip, median survival T/C
Experiment: NCI In Vivo Anticancer Drug Screen. Data for tumor model P388 Leukemia (intraperitoneal) in B6D2F1 (BDF1) mice
Conditions: endpoint: median survival time, higher = longer survival
Method in brief: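 Mice carrying the transplantable tumour receive compound or vehicle. Survival is followed in each arm, and the treated measure is divided by the vehicle measure.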

[1] = dose: 200.0 mg/kg/injection, schedule: Q01DX009 (ip), vehicle: saline with Tween-80
[2] = dose: 400.0 mg/kg/injection, schedule: Q01DX009 (ip), vehicle: saline with Tween-80
[3] = dose: 100.0 mg/kg/injection, schedule: Q04DX003 (ip), vehicle: Klucel (hydroxypropylcellulose) (HPC)
[4] = dose: 200.0 mg/kg/injection, schedule: Q04DX003 (ip), vehicle: Klucel (hydroxypropylcellulose) (HPC)
[5] = dose: 400.0 mg/kg/injection, schedule: Q04DX003 (ip), vehicle: Klucel (hydroxypropylcellulose) (HPC)
[6] = dose: 100.0 mg/kg/injection, schedule: Q01DX009 (ip), vehicle: saline with Tween-80
[7] = dose: 100.0 mg/kg/injection, schedule: Q04DX003 (ip), vehicle: saline with Tween-80
[8] = dose: 200.0 mg/kg/injection, schedule: Q04DX003 (ip), vehicle: saline with Tween-80

Measured: T/C

CCCC(O)(CCC)CC1=NC(C)(C)CO1
inactive: dose: 75.0 mg/kg/injection, schedule: Q04DX003 (ip), vehicle: saline sonified 110 % of control | dose: 150.0 mg/kg/injection, schedule: Q04DX003 (ip), vehicle: saline sonified 105 % of control | dose: 300.0 mg/kg/injection, schedule: Q04DX003 (ip), vehicle: saline sonified 100 % of control

Clc1ccc(COC(Cn2ccnc2)c2ccc(Cl)cc2Cl)c(Cl)c1 (configuration not stated)
inactive: dose: 18.7 mg/kg/injection, schedule: Q01DX009 (ip), vehicle: saline with Tween-80 118 % of control | dose: 75.0 mg/kg/injection, schedule: Q01DX009 (ip), vehicle: saline with Tween-80 118 % of control | [1] 108 % of control | [2] 108 % of control

C=CCN(CC=C)c1ccccc1
inactive: dose: 100.0 mg/kg/injection, schedule: Q01DX009 (ip), vehicle: Klucel (hydroxypropylcellulose) (HPC) 104 % of control | [3] 100 % of control | dose: 200.0 mg/kg/injection, schedule: Q01DX009 (ip), vehicle: Klucel (hydroxypropylcellulose) (HPC) 109 % of control | [4] 100 % of control | dose: 400.0 mg/kg/injection, schedule: Q01DX009 (ip), vehicle: Klucel (hydroxypropylcellulose) (HPC) 122 % of control | [5] 112 % of control

OCC1OC(c2ccc(OCc3ccccc3)cc2OCc2ccccc2)C(O)C1O (configuration not stated)
inactive: dose: 50.0 mg/kg/injection, schedule: Q01DX009 (ip), vehicle: saline with Tween-80 105 % of control | [6] 92 % of control | [1] 92 % of control

CC(=O)NS(=O)(=O)c1ccc(NC(=O)c2ccccc2C(=O)O)cc1
inactive: dose: 50.0 mg/kg/injection, schedule: Q04DX003 (ip), vehicle: saline with Tween-80 100 % of control | [7] 100 % of control | [8] 100 % of control

O=C(Nc1ccccc1)Oc1ccc(Cl)cc1
inactive: [3] 104 % of control | [4] 95 % of control | [5] 109 % of control

c1ccc(CNCCOB(OCCNCc2ccccc2)OCCNCc2ccccc2)cc1
inactive: [3] 100 % of control | [4] 104 % of control | [5] 100 % of control

CNc1nc(N)nc(Nc2ccc(I)cc2)c1N=O
inactive: [6] 90 % of control and 100 % of control | [7] 95 % of control | [1] 90 % of control and 91 % of control | [8] 112 % of control | [2] 87 % of control | dose: 400.0 mg/kg/injection, schedule: Q04DX003 (ip), vehicle: saline with Tween-80 91 % of control

COc1ccc(C(=O)OCCN(CCN(CCOC(=O)c2ccc(OC)cc2)C(=O)c2ccc(OC)cc2)C(=O)c2ccc(OC)cc2)cc1
inactive: dose: 6.25 mg/kg/injection, schedule: Q01DX009 (ip), vehicle: Klucel (hydroxypropylcellulose) (HPC) 95 % of control | dose: 12.5 mg/kg/injection, schedule: Q01DX009 (ip), vehicle: Klucel (hydroxypropylcellulose) (HPC) 95 % of control | dose: 25.0 mg/kg/injection, schedule: Q04DX003 (ip), vehicle: Klucel (hydroxypropylcellulose) (HPC) 91 % of control | dose: 50.0 mg/kg/injection, schedule: Q04DX003 (ip), vehicle: Klucel (hydroxypropylcellulose) (HPC) 90 % of control | [3] 96 % of control | [4] 91 % of control

C/C=C1/CC(C)C(C)(O)C(=O)OCC2CCN3CCC(OC1=O)C23 (configuration not stated)
inactive: dose: 25.0 mg/kg/injection, schedule: Q01DX010 (ip), vehicle: saline 111 % of control | dose: 50.0 mg/kg/injection, schedule: Q01DX010 (ip), vehicle: saline 116 % of control | dose: 100.0 mg/kg/injection, schedule: Q01DX010 (ip), vehicle: saline 116 % of control

FC(F)(F)C1=NC(=S)C(c2[nH]c(C(F)(F)F)nc2S)=N1
inactive: dose: 3.12 mg/kg/injection, schedule: Q01DX009 (ip), vehicle: water 91 % of control | dose: 6.25 mg/kg/injection, schedule: Q01DX009 (ip), vehicle: water 99 % of control | dose: 12.5 mg/kg/injection, schedule: Q01DX009 (ip), vehicle: water 108 % of control | dose: 12.5 mg/kg/injection, schedule: Q04DX003 (ip), vehicle: water 89 % of control and 107 % of control | dose: 25.0 mg/kg/injection, schedule: Q01DX009 (ip), vehicle: water 103 % of control | dose: 25.0 mg/kg/injection, schedule: Q04DX003 (ip), vehicle: water 95 % of control and 100 % of control | dose: 50.0 mg/kg/injection, schedule: Q01DX009 (ip), vehicle: water 112 % of control | dose: 50.0 mg/kg/injection, schedule: Q04DX003 (ip), vehicle: water 89 % of control and 100 % of control | dose: 100.0 mg/kg/injection, schedule: Q01DX009 (ip), vehicle: water 110 % of control | dose: 100.0 mg/kg/injection, schedule: Q04DX003 (ip), vehicle: water 89 % of control and 105 % of control

CC[n+]1c(-c2ccccc2)c2cc(N)ccc2c2ccc(N)cc21 (tested in a mixture with another compound)
inactive: dose: 25.0 mg/kg/injection, schedule: Q01DX009 (ip), vehicle: other 112 % of control | dose: 50.0 mg/kg/injection, schedule: Q01DX009 (ip), vehicle: other 112 % of control

O=C1C=CC(=Nc2ccc3c(c2)C(Br)c2ccccc2-3)O1 (configuration not stated)
inactive: dose: 2.25 mg/kg/injection, schedule: Q01DX009 (ip), vehicle: saline 100 % of control | dose: 4.5 mg/kg/injection, schedule: Q01DX009 (ip), vehicle: saline 100 % of control | dose: 9.0 mg/kg/injection, schedule: Q01DX009 (ip), vehicle: saline 100 % of control | dose: 13.0 mg/kg/injection, schedule: Q01DX009 (ip), vehicle: saline 105 % of control | dose: 20.0 mg/kg/injection, schedule: Q01DX009 (ip), vehicle: saline 100 % of control | dose: 30.0 mg/kg/injection, schedule: Q01DX009 (ip), vehicle: saline 120 % of control | dose: 95.0 mg/kg/injection, schedule: Q04DX003 (ip), vehicle: saline 109 % of control | dose: 145.0 mg/kg/injection, schedule: Q04DX003 (ip), vehicle: saline 118 % of control

Cc1c(C)c2c(c(C)c1O)CCC(C)(CCCC(C)CCCC(C)CCCC(C)C)O2 (configuration not stated)
inactive: dose: 30.0 IU/animal/injection, schedule: Q04DX003 (ip), vehicle: olive oil, sesame oil, peanut oil 100 % of control | dose: 85.0 IU/animal/injection, schedule: Q04DX003 (ip), vehicle: olive oil, sesame oil, peanut oil 100 % of control
